Test results published in patent publication US20260015311A1, “AMINO LIPID COMPOUND, PREPARATION METHOD THEREFOR, AND USE THEREOF” (SHENZHEN SHENXIN BIOTECHNOLOGY CO., LTD., priority 2022, published 2026).
Blank lines part the entries; values can stand above or below the compound they belong to.

How the values were obtained:
[1] = system: Fluc mRNA; test: Activity of lipid nanoparticles of formulation method 2, Fluc mRNA by intramuscular administration; assay type: in vivo, BALB/c mice
Description: (§1) The formulation method was the same as the formulation method 1, except that the molar ratio of the amino lipid compounds to DSPC, cholesterol and PEG2000-DMG was 50:10:38.5:1.5.
(§2) 9 mice were assigned randomly to each group and injected with the lipid nanoparticles at a dosage of 0.5 mg/kg by three administration routes, i.e., subcutaneous, intramuscular and tail vein injection (three mice for each administration route). After 12 hours, D-luciferin potassium salt (200 μL, 10 mg/mL) was injected into each mouse through the tail vein. After 10 minutes, the total fluorescence intensity of each mouse was observed on a living imaging system (IVIS-200, Xenogen) and taken photographs for record. The expression intensities of Fluc mRNA delivered by representative amino lipid compounds through the three administration routes are shown in Table 2-4. MC3 was used as a control and SM102 was used as a comparative compound.
Preparation of Lipid Nanoparticles: LNPs were Prepared Using the Formulation Method 2 for Intramuscular Administration.
The measurement method was the same as that of Test Example 1.

[2] = system: Fluc mRNA; test: In vivo delivery of luciferase mRNA (Fluc mRNA) by lipid nanoparticles, living imaging; set-up: species or system BALB/c mice; conditions: after 12 hours, total fluorescence
Description: (§3) The amino lipid compounds of the present disclosure were mixed with DOPE, cholesterol, and PEG2000-DMG in a molar ratio of 45:10:42.5:2.5 and dissolved in absolute ethanol. By using a microinjection pump, the resultant ethanol solution and a sodium acetate solution (50 mM, pH=4.0) were mixed in a ratio of 1:3 in a microfluidic chip to prepare a crude solution of lipid nanoparticles, which were then dialyzed in 1×PBS at a controlled temperature of 4° C. for 6 h using a dialysis box (Fisher, MWCO 20,000), and filtered through a 0.22 μm microporous filter membrane before use.
as §1
The lipid nanoparticles prepared according to the above formulation method 1 or 2 were used in the biological experiments below for evaluating the performances of in vivo delivery of luciferase mRNA (Fluc mRNA). For the lipid nanoparticles obtained in the formulation method 1, the mass ratio of the amino lipid compounds to the luciferase mRNA was about 10:1, and the lipid nanoparticles were administered subcutaneously; and the lipid nanoparticles obtained in the formulation method 2 were administered by tail vein and intramuscular injection.
6-week-old female BALB/c mice weighed about 20 g were selected and fed in a SPF-grade feeding room. Animal tests were conducted strictly according to the guidelines of National Health institutions and the requirements of animal ethics.
as §2

[3] = Stability of lipid nanoparticles at 25° C., DLS particle size and PDI; assay type: physicochemical; conditions: for particle size change after four weeks of storage: 25° C., week 4 versus week 0; for particle size: preparation day (week 0)
Description: as §3
(§4) Preparation of Lipid Nanoparticles: The Formulation Method 1 was Used to Prepare LNPs for Subcutaneous Administration.
Characterization of lipid nanoparticles: The particle size and PDI of the prepared lipid nanoparticles were measured by Nano-ZSZEN 3600 (Malvern). 40 μL of the LNP solution was taken for particle size measurement with circulation for three times, 30 seconds for each circulation.
(§5) The particle size measurements were carried out on the day of preparation (week 0), and after one week (week 1), two weeks (week 2), and four weeks (week 4) of storage at 25° C., and the expression intensities of Fluc mRNA delivered by subcutaneous administration were determined on the day of preparation (week 0) and after four weeks (week 4).

[4] = system: Fluc mRNA; test: Stability of lipid nanoparticles at 25° C., subcutaneous expression of Fluc mRNA; assay type: in vivo, mice; conditions: for Fluc expression change after four weeks: 25° C., week 4 versus week 0
Description: as §3, §2, §4, §5

[5] = subcutaneous administration, formulation method 1, 0.5 mg/kg
[6] = week 0, subcutaneous administration
[7] = week 4, storage at 25° C., subcutaneous administration

SMILES: CCCCCCCCCOC(=O)CCCCCCCN(CCCCCCCC(=O)OC(CCCCCCCC)CCCCCCCC)C1CCCC1O (centres unmarked) [Comparative compound 1]
Fluorescence intensity (expression intensity of Fluc mRNA) [1]: 1.7E + 05

SMILES: CCCCCCCCCCCOC(=O)CCCCCN(CCCCCCCC(=O)OC(CCCCCCCC)CCCCCCCC)C1CCCCC1O (centres unmarked) [Comparative compound 3]
Fluorescence intensity (expression intensity of Fluc mRNA) [1]: 2.9E + 05

SMILES: CCCCCCCCC(CCCCCC)OC(=O)CCCCCN(CCCCCC(=O)OC(CCCCCC)CCCCCCCC)C1CCCCC1O (centres unmarked) [Comparative compound 4]
Fluorescence intensity (expression intensity of Fluc mRNA) [1]: 1.3E + 05

SMILES: CCCCCCCCCOC(=O)CCCCCCCN(CCCCCCCC(=O)OC(CCCCCCCC)CCCCCCCC)C1CCC(O)CC1 (centres unmarked) [Comparative compound 6]
Fluorescence intensity (expression intensity of Fluc mRNA) [1]: 1.9E + 07
Fluorescence intensity (expression intensity of Fluc mRNA) ([1]; listed as comparative compound 6): 1.9E+07

SMILES: CCCCCCCCCCCOC(=O)CCCCCN(CCCCCCCC(=O)OC(CCCCCCCC)CCCCCCCC)C1CCC(O)CC1 (centres unmarked) [Comparative compound 7]
Fluorescence intensity (expression intensity of Fluc mRNA) [1]: 4.5E + 06

SMILES: CCCCCCCCC(CCCCCC)OC(=O)CCCCCN(CCCCCC(=O)OC(CCCCCC)CCCCCCCC)C1CCC(O)CC1 (centres unmarked) [Comparative compound 8]
Fluorescence intensity (expression intensity of Fluc mRNA) [1]: 2.1E + 06

SMILES: CCCCCCCCCOC(=O)CCCCCCCN(CCCCCCCC(=O)OC(CCCCCCCC)CCCCCCCC)C1CC(O)C1 (centres unmarked) [Compound 1]
Fluorescence intensity (expression intensity of Fluc mRNA) [2, 5]: 2.7E + 07

SMILES: CCCCCCCCCOC(=O)CCCCCCCN(CCCCCCCC(=O)OC(CCCCCCCC)CCCCCCCC)C1CCC(O)C1 (centres unmarked) [Compound 4]
Fluorescence intensity (expression intensity of Fluc mRNA) [1]: 6.7E + 06

particle size change after four weeks of storage [3]: did not increase significantly
particle size [3]: about 100 nm
Z-Average ([3]; week 0 (day of preparation)): 105 nm·days
PDI ([3]; week 1, storage at 25° C.): 0.05
Z-Average ([3]; week 1, storage at 25° C.): 110 nm·days
PDI ([3]; week 2, storage at 25° C.): 0.06
Z-Average ([3]; week 2, storage at 25° C.): 110 nm·days
Z-Average ([3]; week 4, storage at 25° C.): 115 nm·days
SMILES: CCCCCCCCCCCOC(=O)CCCCCN(CCCCCCCC(=O)OC(CCCCCCCC)CCCCCCCC)C1CCC(O)C1 (centres unmarked) [Compound 5]
Fluorescence intensity (expression intensity of Fluc mRNA) [2, 5]: 1.4E + 07
Fluc expression change after four weeks [4]: did not decrease significantly
Fluc Expression intensities [4, 6]: 1.4E+07
Fluc Expression intensities [4, 7]: 1.1E+07

particle size change after four weeks of storage [3]: did not increase significantly
particle size [3]: about 100 nm
Z-Average ([3]; week 0 (day of preparation)): 110 nm·days
PDI ([3]; week 1, storage at 25° C.): 0.05
Z-Average ([3]; week 1, storage at 25° C.): 110 nm·days
PDI ([3]; week 2, storage at 25° C.): 0.04
Z-Average ([3]; week 2, storage at 25° C.): 125 nm·days
Z-Average ([3]; week 4, storage at 25° C.): 125 nm·days
SMILES: CCCCCCCCCOC(=O)CCCCCCCN(CCCCCCCC(=O)OC(CCCCCCCC)CCCCCCCC)C1CCCC(O)C1 (centres unmarked) [Compound 6]
Fluorescence intensity (expression intensity of Fluc mRNA) ([2]; intramuscular injection, formulation method 2, 0.5 mg/kg): 1.2E + 08
Fluorescence intensity (expression intensity of Fluc mRNA) [2, 5]: 3.7E + 08
Fluorescence intensity (expression intensity of Fluc mRNA) ([2]; tail vein administration, formulation method 2, 0.5 mg/kg): 1.7E + 08
Fluc expression change after four weeks [4]: did not decrease significantly
Fluc Expression intensities [4, 6]: 3.7E+08
Fluc Expression intensities [4, 7]: 3.6E+08
